Source: patent US8629242B2, “Methods of inhibiting calcineurin with ApoE analogs” (Cognosci, Inc., priority 2007, dated 2014)
Where a SMILES comes first, the peptide text is derived from it. [ ]: non-standard residue; d: D form. Aib = CC(C)(N)C(=O)O

Experiments:
[1] = test system: peritoneal macrophages isolated from EAE mice; test: In vitro effect on LPS+IFN-γ-induced inflammatory mediators in macrophages from saline-treated EAE mice; assay type: cell-based; conditions: for inhibition of NO release: 72 hours after LPS+IFN-γ; for NOS2 expression (real-time PCR): normalized to 18S rRNA, fold change vs control
Description: FIG. 5. In vitro effects of COG compounds on LPS and IFN-γ-induced production of inflammatory mediators in cultured peritoneal macrophages isolated from EAE mice. Conditioned medium with or without COG 133 or COG 112 was collected 45 hours after immunogen exposure for analysis of TNF-α (A) and IL-6 (B), or 72 hours after inflammatory stimulation for measurement of nitrite (C). Level of NOS2 expression was assessed by quantitative real-time PCR (D). NOS2 expression was first normalized by the endogenous control (18S rRNA) and then expressed as fold change compared to control group. Statistical analysis was performed by ANOVA and significance was shown as *(p<0.05) and **(p<0.001).
We then examined the ability of COG 112 (SEQ ID NO: 5) and COG 133 (SEQ ID NO: 1) to inhibit the in vitro release of NO, TNF-α and IL-6 using macrophages obtained from saline-treated EAE mice on dpi 35. Conditioned medium with or without COG 133 or COG 112 was collected 45 hours after immunogen (LPS+IFN-γ) exposure for analysis of TNF-α and IL-6, or 72 hours after stimulation for measurement of nitrite. […] Levels of NOS2 expression were quantified by real-time PCR. NOS2 expression was first normalized by the endogenous control (18S rRNA) and then expressed as fold change compared to control group.

cerebellar slices = test: Lysolecithin-induced demyelination in organotypic cerebellar slice culture; assay type: cell-based, rat
Description: FIG. 7. COG 112 promotes remyelination in a lysolecithin-induced demyelination model in cerebellum slice culture. Cerebellum slices from postnatal day 10 rat pups were cultured for 7 days. Lysolecithin was added to a final concentration of 0.5 mg/ml and then removed after incubation overnight (15˜17 hr). 1 μM COG 112 was added to the slice and cultured for 5 days. The cerebellar slices were either immunohistologically stained with MBP; or collected and lysed for western blotting with myelin marker MBP. (A) naïve slice; (B) 2 days after lysolecithin treatment; (C) day 7 after lysolecithin treatment; (D) day 7 after lysolecithin treatment with COG 112 added on day 3; (E) Western blot of cerebellar lysates probed for MBP; (F) Densitometry analysis of blots probed for MBP. The density of each MBP band was normalized to density of β-actin band. One-way ANOVA was used for statistical analysis. n=4
FIG. 8. COG 112 prevents lysolecithin-induced cell death of oligodendrocytes in cerebellum slice culture. Cerebellum slices from postnatal day 10 rat pups were cultured for 7 days. Lysolecithin was added to a final concentration of 0.5 mg/ml with and without COG 112 (1 μM). After incubation overnight (16 hr), medium was replaced with fresh lysolecithin-free medium, but still containing COG 112 for the COG 112 treatment group. After two days, the cerebellar slices were collected and lysed for western blotting with myelin marker MBP (left panel) and oligodendrocyte marker CNPase (right panel). The density of each MBP or CNPase band was normalized to the density of the β-actin band. One-way ANOVA was used for statistical analysis. n=4, * p<0.01.
FIG. 19. COG 345 promotes remyelination in lysolecithin-induced demyelination model of cerebellum slices. Significant demyelination was induced by lysolecithin (0.5 mg/ml) in cerebellar slices. COG 112 or COG 345 (1 μM) was added on day 3 when full demyelination was achieved. 4 days later, the slices were fixed and double stained with myelin marker MBP (green) and Purkinje cell marker calbindin (red). (A) Untreated-slices; (B) lysolecithin-treated slices; (C) COG 112-treated slices after lysolecithin exposure; (D) COG 345-treated slices after lysolecithin exposure. E-F. ApoE analogs protect OPCs from LPS-induced cell death in OPC/microglia mixed culture. OPCs and microglia derived from brain culture of P2 rat pups were plated in 96-well plates in 1:1 ratio. LPS (10 ng/ml) together with 1 μM of the indicated ApoE analogs was added to the cultures. After 24 hours, OPC cell death was quantified by LDH assay (E) and MTT assay (F). Statistical analysis was conducted by one-way ANOVA followed by Dunnett comparison vs. LPS group. * P<0.01, ** P<0.001, n=3.
The effect of COG peptides (i.e. ApoE analogs) on remyelination in a second model of demyelination was examined. For this series of experiments, a lysolecithin-induced in vitro demyelination model in an organotypic cerebellar slice culture was used. Parasagittal slices of postnatal Day 10 (P10) rat cerebellum were cut at 400 μm using a Tissue Slicer (SD Instruments, Grants Pass, Oreg.). After culture in conditioned medium for 7 days in vitro (DIV), fresh medium with lysolecithin (0.5 mg/ml) was added to the slice and incubated overnight (15-17 hours) at 37° C. The lysolecithin-containing medium was then replaced with fresh medium without lysolecithin. On day 3, COG 112 (1 μM) was added to the slice with fresh medium. After incubation for 5 days, the cerebellar slices were either immunohistologically stained for myelin basic protein (MBP), a myelin marker, (FIG. 7A-D) or lysed for western blotting and subsequent probing for MBP (FIGS. 7E and F). […] Similar results were obtained from the Western blot analysis of lysates of the cerebellar slices (FIGS. 7E and F). […] In addition, the blots of cerebellar slice lysate were also probed for oligodendrocyte (OL) marker 2′,3′-Cyclic Nucleotide 3′-Phosphodiesterase (CNPase). […]

enriched OPC cultures = test: Number of mature oligodendrocytes after differentiation of enriched OPC culture; assay type: cell-based, rat; conditions: 2 μM COG 133, 1 μM COG 112 or 1 μM COG 68 for four days, then six days differentiation without analog
Description: FIG. 11. ApoE analogs increase the number of mature oligodendrocytes in culture. ApoE analogs (COG 133, COG 112, and COG 68) were added to enriched OPC culture in proliferation media for four days. Cultures were then differentiated in the absence of the ApoE analogs. Cells were labeled with a GST-π antibody to detect mature oligodendrocytes.
Since COG 112 increased the proliferation of OPCs, we next examined whether the ApoE analogs could also increase the number of mature oligodendrocytes. Enriched OPC cultures were prepared as described for the previous experiment. 2 μM COG 133 (SEQ ID NO: 1), 1 μM COG 112 (SEQ ID NO: 5), or 1 μM COG 68 (Ac-[…]-NH2; SEQ ID NO: 7) were added to the enriched OPC cultures in proliferation media for four days. The media was then replaced with differentiation medium without the ApoE analogs for an additional six days. Cells were labeled with a GST-π antibody to detect mature oligodendrocytes.

[2] = 45 hours after LPS+IFN-γ, dose-dependent suppression
[3] = 1 μM added on day 3 after lysolecithin, 5 days
[4] = 1 μM added together with lysolecithin, 2 days after

Molecule: Ac-RQIKIWFQNRRMKWKKCLRVRLASHLRKLRKRLL-NH2 [COG 112]
- inhibition of NO release ([1]; 5 μM): completely inhibited
- concentration giving complete inhibition of IL-6 levels [1, 2]: about 5 μM
- concentration giving complete inhibition of TNF-α levels [1, 2]: about 5 μM
- NOS2 expression (real-time PCR) [1]: more potent effect than COG 133
- MBP levels (Western blot) (cerebellar slices; [3]): increased MBP levels
- level of MBP protein (immunostaining) (cerebellar slices; [3]): robustly elevated
- prevention of lysolecithin-induced demyelination (MBP Western blot) (cerebellar slices; [4]): did not prevent lysolecithin-induced demyelination
- prevention of oligodendrocyte cell death (CNPase Western blot) (cerebellar slices; [4]): did prevent oligodendrocyte cell death
- level of CNPase (Western blot) (cerebellar slices; 1 μM post-treatment, data not shown): significantly increased
- number of mature oligodendrocytes (GST-π) (enriched OPC cultures): significantly increased the number of mature oligodendrocytes

Molecule: CC(=O)NC(=N)NCCC[C@H](NC(=O)[C@H](CCCCN)NC(=O)[C@H](CCCNC(=N)N)NC(=O)[C@H](CC(C)C)NC(=O)[C@H](CCCCN)NC(=O)[C@H](CCCNC(=N)N)NC(=O)[C@H](CC(C)C)NC(=O)C(C)(C)NC(=O)[C@H](CO)NC(=O)[C@H](C)NC(=O)[C@H](CC(C)C)NC(=O)[C@H](CCCNC(=N)N)NC(=O)[C@@H](NC(=O)[C@H](CCCNC(=N)N)NC(=O)[C@H](CC(C)C)NC(C)=O)C(C)C)C(=O)N[C@@H](CC(C)C)C(=O)N[C@@H](CC(C)C)C(N)=O [COG 345, acetyl-LRVRLAS-Aib-LRKLRK(acetyl-Arg)LL-amide] (Ac-LRVRLAS[Aib]LRKLRKR(Ac)LL-NH2)
- myelination (MBP/calbindin double staining) (cerebellar slices; 1 μM added three days after lysolecithin, 4 days): dramatically restored myelination

Molecule: CC(=O)N[C@@H](CC(C)C)C(=O)N[C@@H](CCCNC(=N)N)C(=O)N[C@H](C(=O)N[C@@H](CCCNC(=N)N)C(=O)N[C@@H](CC(C)C)C(=O)N[C@@H](C)C(=O)N[C@@H](CO)C(=O)N[C@@H](Cc1c[nH]cn1)C(=O)N[C@@H](CC(C)C)C(=O)N[C@@H](CCCNC(=N)N)C(=O)N[C@@H](CCCCN)C(=O)N[C@@H](CC(C)C)C(=O)N[C@@H](CCCNC(=N)N)C(=O)N[C@@H](CCCCN)C(=O)N[C@@H](CCCNC(=N)N)C(=O)N[C@@H](CC(C)C)C(=O)N[C@@H](CC(C)C)C(N)=O)C(C)C [COG 133]
- suppression of IL-6 ([1]; 5 μM, 45 hours after LPS+IFN-γ): only moderate, yet statistically significant, suppression
- suppression of TNF-α ([1]; 5 μM, 45 hours after LPS+IFN-γ): only moderate, yet statistically significant, suppression
- inhibition of NO release ([1]; 5 μM): about 37%
- NOS2 expression (real-time PCR) [1]: affect NOS2 expression
- number of mature oligodendrocytes (GST-π) (enriched OPC cultures): significantly increased the number of mature oligodendrocytes
